These results are taken from ChEMBL document CHEMBL5523667, “Blood-stage antimalarial activity, favourable metabolic stability and in vivo toxicity of novel piperazine linked 7-chloroquinoline-triazole conjugates” (Eur J Med Chem, 2024).

pIC50, pKd, pKi: −log10 of the molar value. Activity calls are given as the source filed them. No cut-off for these calls is given here.

Series [1] deals with Plasmodium falciparum. The series is described as follows: Antimalarial activity against schizont stage chloroquine-sensitive Plasmodium falciparum 3D7 assessed as growth inhibition incubated with compound for 6 hrs and measured 72 hrs post invasion by SYBR Green dye based analysis. The format is functional, organism-based.
In series [2] the test system is Plasmodium falciparum. The series is described as follows: Antimalarial activity against chloroquine-sensitive Plasmodium falciparum NF54 assessed as inhibition of parasite growth by lactate dehydrogenase assay. The format is functional, organism-based.
Series [3] deals with Plasmodium falciparum. The series is described as follows: Antimalarial activity against synchronized ring stage Plasmodium falciparum assessed as increase in undigested hemoglobin level at 1 to 4 uM incubated for 20 hrs by absorbance based analysis. The format is functional, organism-based. The settings on record: dose 1-4 µM.
Series [4] can be described thus: Toxicity in mouse assessed as cell apoptosis in kidney at 100 to 200 mg/kg measured after 7 days by hematoxylin and eosin staining based analysis. The format is organism-based. Particulars: in vivo, 168 h, dose 100-200 mg/kg, time 7 day.
For series [5], the system named is Plasmodium falciparum. As to the kind of experiment: Antimalarial activity against synchronized ring stage Plasmodium falciparum assessed as reduction in hemozoin level at 1 to 4 uM incubated for 20 hrs by absorbance based analysis. In kind it is functional, organism-based. Particulars: dose 1-4 µM.
For series [6], the target named is T1, Falcipain-3 (Plasmodium falciparum 3D7, UniProt Q8IIL0).
T1 sequence (Q8IIL0 whole entry): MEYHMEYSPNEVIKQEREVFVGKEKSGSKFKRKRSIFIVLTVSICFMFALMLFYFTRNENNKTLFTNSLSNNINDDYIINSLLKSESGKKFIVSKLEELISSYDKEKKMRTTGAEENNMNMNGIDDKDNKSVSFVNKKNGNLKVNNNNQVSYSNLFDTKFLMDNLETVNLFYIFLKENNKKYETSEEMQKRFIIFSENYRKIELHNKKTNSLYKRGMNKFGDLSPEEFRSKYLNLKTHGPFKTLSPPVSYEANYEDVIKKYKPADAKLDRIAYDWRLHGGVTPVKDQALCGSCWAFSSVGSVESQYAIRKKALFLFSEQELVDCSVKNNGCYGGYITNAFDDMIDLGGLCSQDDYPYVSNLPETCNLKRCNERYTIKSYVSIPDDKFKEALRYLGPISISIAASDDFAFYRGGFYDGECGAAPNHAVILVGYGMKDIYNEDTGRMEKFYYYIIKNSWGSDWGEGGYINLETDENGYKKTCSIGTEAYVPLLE
The series is described as follows: Inhibition of N-terminal 6His-tagged recombinant Plasmodium falciparum FP3 expressed in Escherichia coli M15 using Z-Phe-Arg-AMC as substrate measured after 30 mins by microplate reader analysis.

Series [7] in a line: Toxicity in mouse assessed as latency to fall off the rotating rod by measuring neuromuscular coordination index at 100 mg/kg by rotarod apparatus (reference value: 12.45 +/- 1.48 ). The settings on record: in vivo. The format is organism-based. On the technique in general: Falling from the rotarod earlier than controls is read as motor impairment.
Series [8] in a line: Cytotoxicity against CHO cells assessed as reduction in cell viability by MTT assay. The format is toxicity, cell-based. Particulars: Chinese hamster (Cricetulus griseus).
The nature of series [9]: Toxicity in mouse assessed as cell necrosis in kidney at 100 to 200 mg/kg measured after 7 days by hematoxylin and eosin staining based analysis. In kind it is organism-based. The settings on record: in vivo, 168 h, dose 100-200 mg/kg, time 7 day.
The test system of series [10] is Plasmodium falciparum. The series is described as follows: Antimalarial activity against ring stage chloroquine-sensitive Plasmodium falciparum 3D7 assessed as growth inhibition incubated with compound for 6 hrs and measured 72 hrs post invasion by SYBR Green dye based analysis. The format is functional, organism-based.
For series [11], the system named is Plasmodium falciparum. The series is described as follows: Resistance index, ratio of IC50 for antimalarial activity against chloroquine-resistant Plasmodium falciparum K1 to IC50 for antimalarial activity against chloroquine-sensitive Plasmodium falciparum NF54. In kind it is functional.
Series [12] is described as follows: Toxicity in mouse assessed as cell necrosis in liver at 100 to 200 mg/kg measured after 7 days by hematoxylin and eosin staining based analysis. Particulars: in vivo, 168 h, dose 100-200 mg/kg, time 7 day. The format is organism-based.
Series [13] concerns the target T2, Falcipain-3 (Plasmodium falciparum 3D7) (UniProt Q8IIL0).
T2 sequence (whole entry): T1 sequence (Q8IIL0 whole entry)
The series is described as follows: Inhibition of N-terminal 6His-tagged recombinant Plasmodium falciparum FP3 expressed in Escherichia coli M15 using Z-Phe-Arg-AMC as substrate at 10 uM measured after 30 mins by microplate reader analysis relative to control.

Series [14] addresses T3, Falcipain 2 (Plasmodium falciparum, UniProt Q9N6S8).
T3 sequence (Q9N6S8 whole entry): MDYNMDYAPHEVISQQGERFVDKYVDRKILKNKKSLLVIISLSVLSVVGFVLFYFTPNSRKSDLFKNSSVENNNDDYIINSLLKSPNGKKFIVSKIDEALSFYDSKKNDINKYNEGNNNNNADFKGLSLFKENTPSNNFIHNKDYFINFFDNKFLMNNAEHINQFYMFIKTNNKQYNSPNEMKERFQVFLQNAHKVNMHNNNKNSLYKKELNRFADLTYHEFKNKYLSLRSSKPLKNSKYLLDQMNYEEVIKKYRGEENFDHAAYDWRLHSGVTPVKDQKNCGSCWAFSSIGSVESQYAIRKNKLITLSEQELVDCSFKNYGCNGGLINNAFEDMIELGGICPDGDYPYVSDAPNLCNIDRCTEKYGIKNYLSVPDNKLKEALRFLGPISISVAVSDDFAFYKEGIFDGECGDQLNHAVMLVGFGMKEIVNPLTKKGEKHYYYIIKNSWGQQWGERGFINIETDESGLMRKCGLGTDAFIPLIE
The series is described as follows: Competitive inhibition of N-terminal 6His-tagged recombinant Plasmodium falciparum FP2 expressed in Escherichia coli M15 assessed as inhibition constant using Z-Phe-Arg-AMC as substrate measured after 30 mins by microplate reader analysis.

Series [15] is described as follows: Toxicity in mouse assessed as cell death in liver at 100 to 200 mg/kg measured after 7 days by hematoxylin and eosin staining based analysis. The settings on record: in vivo, 168 h, dose 100-200 mg/kg, time 7 day. In kind it is organism-based.
Series [16] concerns the target T3, Falcipain 2. As to the kind of experiment: Binding affinity to N-terminal 6His-tagged recombinant Plasmodium falciparum FP2 expressed in Escherichia coli M15 assessed as dissociation constant incubated for 15 mins in presence of lysine reactive dye by microscale thermophoretic analysis.
Series [17] can be described thus: Toxicity in mouse assessed as cell necrosis in spleen at 100 to 200 mg/kg measured after 7 days by hematoxylin and eosin staining based analysis. The format is organism-based. Particulars: in vivo, 168 h, dose 100-200 mg/kg, time 7 day.
Series [18] is described as follows: Stability of the compound in simulated intestinal fluid at pH 6.8 at 1 uM measured after 120 mins by LC-MS/MS analysis. Particulars: simulated gi fluid, pH 6.8, 2 h. In kind it is ADME.
The target of series [19] is T4, Falcipain 2 (Plasmodium falciparum) (UniProt Q9N6S8).
T4 sequence (whole entry): T3 sequence (Q9N6S8 whole entry)
As to the kind of experiment: Inhibition of N-terminal 6His-tagged recombinant Plasmodium falciparum FP2 expressed in Escherichia coli M15 using Z-Phe-Arg-AMC as substrate at 10 uM measured after 30 mins by microplate reader analysis relative to control.

The target of series [20] is T1, Falcipain-3. As to the kind of experiment: Binding affinity to N-terminal 6His-tagged recombinant Plasmodium falciparum FP3 expressed in Escherichia coli M15 assessed as dissociation constant by surface plasmon resonance analysis. (In SPR one partner is held on a chip, and binding of the other changes the refractive index at the surface.)
Series [21] in a line: Toxicity in mouse assessed as effect on exploratory activity at 100 to 200 mg/kg measured over 5 mins by open field arena test. In kind it is organism-based. The settings on record: in vivo, dose 100-200 mg/kg.
For series [22], the system named is Plasmodium falciparum. As to the kind of experiment: Antimalarial activity against schizont stage Plasmodium falciparum infected in erythrocytes assessed as decrease in falcipain-mediated substrate hydrolysis by measuring reduction in fluorescence intensity of the fluorogenic peptide at 5 uM pre-incubated for 1 hr followed by Z-Phe-Arg-AMC substrate addition and measured after 5 to 10 mins by confocal microscopic analysis. In kind it is functional, organism-based. Particulars: Erythrocyte, time 65-70 min.

Series [23] in a line: Stability of the compound in simulated gastric fluid at pH 1.2 at 1 uM measured after 120 mins by LC-MS/MS analysis. Particulars: simulated gi fluid, pH 1.2, 2 h. In kind it is ADME.
Series [24] is described as follows: Toxicity in mouse assessed as grooming time at 200 mg/kg by open field test (reference value: 10.91 +/- 2.01 sec). Particulars: in vivo, 2 s. In kind it is organism-based.

The term pIC50 denotes −log10 of the IC50, conventionally taken in molar units. As usually defined, the inhibition is how much of the control response was suppressed. Broadly, the pKi is the Ki on a negative log10 scale, so that one unit is a factor of ten. What is called pKd is the Kd on a negative log10 scale, so that one unit is a factor of ten. Turning to `O=C(Cn1cc(CN2CCN(c3ccnc4cc(Cl)ccc34)CC2)nn1)Nc1cccc([N+](=O)[O-])c1`, the pIC50 is 5.51 with Plasmodium falciparum [1]; 6.04 in the series with Plasmodium falciparum [2]; 4.50 on Falcipain-3 [6]; 3.83 in [8]; 4.99 in the series with Plasmodium falciparum [10]. In addition, the result with Plasmodium falciparum [3], in the series on Plasmodium falciparum [5] and in the series on Plasmodium falciparum [22] was Active. Besides, the Activity result in [4], in [9], in [12], in series [15], in series [17] and in series [21] was “Non-Toxic” in each case. The Activity_index in [7] is on record as 11.53. In the series on Plasmodium falciparum [11], the “Ratio IC50” value stood at 1.95. For the same compound, the values for the inhibition in series [13] and in series [19] were 28.5% and 54.3%, respectively. On Falcipain 2 [14], the pKi was 6.28. For the same compound, the pKd at Falcipain 2 [16] was 5.52; on Falcipain-3 [20], 4.13. For the same compound, the Stability entry in [18] and in series [23] was “Stable” in each case. For the same compound, in [24], the Time amounted to 14.31 s.
